≈ marks a conversion by molar mass, not a printed value. Entries after “also recorded” stand apart in the source; their conditions may differ.
How the values were obtained:
[1] = tested on: SW1990 cells; assay: Ras signaling (p-Akt, p-Erk) in SW1990 cells, Western blot; assay type: cell-based; conditions: SW1990, 10 μM, 24 h
Protocol: SW1990 cells were obtained from ATCC and maintained in DMEM (Gibco)+10% heat-inactivated FBS (Axenia Biologix) supplemented with penicillin and streptomycin (Gibco). When indicated, cells were treated with drugs at 60-80% confluency at a final DMSO concentration of 1%. At the end of treatment period, cells were placed on ice and washed once with PBS. The cells were scraped with a spatula, pelleted by centrifugation (500×g, 5 min) and lysed in RIPA buffer supplemented with protease and phosphatase inhibitors (cOmplete and phosSTOP, Roche) on ice for 10 min. Lysates were clarified by high-speed centrifugation. Concentrations of lysates were determined with protein BCA assay (Thermo Fisher) and adjusted to 2 mg/mL with additional RIPA buffer. Samples were mixed with 5×SDS Loading Dye and heated at 95° C. for 5 min.
Gel Electrophoresis and Western Blot
Unless otherwise noted, SDS-PAGE was run with Novex 4-12% Bis-Tris gel (Invitrogen) in MES running buffer (Invitrogen) at 200V for 40 min following the manufacturer's instructions. Protein bands were transferred onto 0.45-μm nitrocellulose membranes (Bio-Rad) using a wet-tank transfer apparatus (Bio-Rad Criterion Blotter) in 1×TOWBIN buffer with 10% methanol at 75V for 45 min. […] The membrane was washed three times with TBST (5 min each wash) and imaged on a Li-COR Odyssey fluorescence imager.

[2] = Solubility in aqueous buffer; assay type: physicochemical; conditions: for solubility (in words): KD2 Thr10 mutants, compared with parent peptide KD2
[3] = molecular target: T1, K-Ras(G12D)·GppNHp and Raf1-RBD (Homo sapiens, UniProt P01116, G12D); assay: TR-FRET Ras-Raf interaction assay, K-Ras(G12D); assay type: biochemical; conditions: KD2 Thr10 analogs compared to KD2
T1 construct: pET-Duet plasmids encoding BirA biotin-protein ligase and His-Avi-TEV-tagged K-Ras proteins were constructed; made in house; host or cells: E. coli BL21(DE3)
T1 sequence (P01116 1-169 isoform P01116-2 G12D): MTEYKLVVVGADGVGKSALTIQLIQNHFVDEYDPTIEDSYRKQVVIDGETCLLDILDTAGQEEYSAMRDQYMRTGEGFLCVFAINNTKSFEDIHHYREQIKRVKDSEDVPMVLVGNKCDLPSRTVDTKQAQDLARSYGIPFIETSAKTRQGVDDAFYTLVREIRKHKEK

Row | Compound | Ras signaling (p-Akt or p-Erk levels) [1] | solubility (in words) [2] | potency relative to KD2, Ras·Raf interaction [3] | further results
1 | CC[C@H](C)[C@@H]1NC(=O)[C@H](Cc2ccccc2)NC(=O)[C@H](CCCCN)NC(=O)[C@H](CCC(=O)O)NC(=O)[C@H]([C@@H](C)O)NC(=O)[C@H](C(C)C)NC(=O)[C@H]([C@@H](C)CC)NC(=O)[C@H]([C@@H](C)CC)NC(=O)[C@@H](Cc2ccc(O)cc2)NC(=O)CSC[C@@H](C(=O)NCC(N)=O)NC(=O)[C@H](Cc2c[nH]cn2)NC(=O)[C@H](Cc2c[nH]cn2)NC(=O)[C@H](C(C)C)NC(=O)[C@H](Cc2c[nH]c3ccccc23)NC1=O [KD1] | did not observe any change; also recorded: does not inhibit Ras signaling | – | – | solubility ([2]; aqueous buffer): ~50 µM (≈ 94.2 µg/mL)
2 | N[C@@H](Cc1c[nH]cn1)C(=O)O [His, histidine] | – | limited solubility | – | –
3 | CC1CCN(C[C@@H]2NC(=O)[C@H](CCCNC(=N)N)NC(=O)[C@H](Cc3ccccc3)NC(=O)[C@H](CC(N)=O)NC(=O)[C@H](CCCNC(=N)N)NC(=O)[C@H](Cc3ccccc3)NC(=O)[C@H](CC(N)=O)NC(=O)[C@H](C(C)C)NC(=O)[C@H](Cc3ccccc3)NC(=O)[C@@H](Cc3ccc(O)cc3)NC(=O)CSC[C@@H](C(=O)NCC(N)=O)NC(=O)[C@H](CCCNC(=N)N)NC(=O)[C@H](Cc3ccccc3)NC2=O)CC1 [Aza-X] | – | – | > 10 fold | –
4 | NCCCC[C@H](N)C(=O)O [Lys, lysine] | – | significantly lower | about 3 fold | –
5 | NC[C@H](N)C(=O)O [Dap, 2,3-diaminoproprionic acid] | – | limited solubility | – | –
6 | CC(C)C[C@@H]1NC(=O)[C@H](CCC(=O)O)NC(=O)[C@H](CC(C)C)NC(=O)[C@@H]2CCCN2C(=O)[C@H](CCCNC(=N)N)NC(=O)[C@H](Cc2ccc(O)cc2)NC(=O)[C@@H]2CCCN2C(=O)[C@H](Cc2ccc(O)cc2)NC(=O)[C@H](CC(N)=O)NC(=O)[C@@H](Cc2ccc(O)cc2)NC(=O)CSC[C@@H](C(=O)NCC(N)=O)NC(=O)[C@H](Cc2ccc(O)cc2)NC(=O)[C@H](Cc2c[nH]c3ccccc23)NC(=O)CNC1=O [KD17] | did not observe any change; also recorded: does not inhibit Ras signaling | – | – | –
